Values of other authors in patent EP3520802A1, “PROCESS FOR EXTRACTING CURCUMINOIDS” (EFESON - Chemical Research & Engineering Development, priority 2018, dated 2019).

Conditions: non-clustered curcuminoid, usual value stated as background

COc1cc(/C=C/C(=O)CC(=O)/C=C/c2ccc(O)c(OC)c2)ccc1O [Curcumin I, curcumin]
logP: around 2.90
